# Data from PMC9539280 (Advanced Science, 2022).
# Counter-ions that a name gives are not always drawn. Like-named read-outs stand apart in the source and are kept apart here.
# Key:
# [1] = cited from earlier work
# [2] = cited from earlier work; for Cardiotoxic effects: reported clinical cardiotoxic effects of the repurposed drug, 10a,b, 10c, 41, 42
# [3] = tested on: hCMs (human pluripotent stem cell-derived cardiomyocytes); experiment: Cytotoxicity assay, calcein-AM/PI double staining, relative cell viability; type: cell-based; conditions: for cell viability of hCMs: 6 days, escalating concentrations (0.03-3 or 1-30 × 10^−6 M), calcein-AM/PI; for effects on normal hCMs (viability, apoptosis, sarcomere organization): absence of remdesivir, 3 μM and 10 μM
# Procedure: (§1) hCMs were dissociated with 0.25% trypsin/EDTA (25200072, Gibco) and then seeded into 384‐well plates at the density of 8 × 10^3 cells per well. 24 h after seeding, cells were exposed to the drugs at the indicated concentrations for 6 days. Culture media were fully changed every 3 days with new drug supplementation. After drug treatment, cells were stained with calcein‐AM/PI/Hoechst for 20 min using calcein‐AM/PI double staining kit (C542, DOJINDO). Images were captured by the Operetta CLS High‐Content Analysis System (PerkinElmer). Number of live cells (calcein‐AM+/PI‐) and dead cells (PI+) was quantified by using the Harmony 4.9 software (PerkinElmer). Number of live cells was used to calculate the “relative cell viability” as follows (1) relarivecellviability=numberoflivecellsineachtreatment/numberoflivecellsinDMSOcontrol×100%
# [4] = tested on: hCMs; experiment: TUNEL apoptosis assay in hCMs; conditions: 6 days
# [5] = tested on: hEHTs (human engineered heart tissues); experiment: TUNEL/α-actinin staining of hEHTs; conditions: 2 × 10^−6 and 5 × 10^−6 M for 3 days
# [6] = tested on: hCMs; experiment: Sarcomere organization by α-actinin immunostaining in hCMs; conditions: 6 days
# [7] = tested on: hCMs; experiment: Spontaneous calcium transient measurement (Fluo-4) in hCMs; conditions: spontaneous, 6 days; for calcium transient amplitude: escalating concentrations (1-20 μM)
# [8] = tested on: hCMs; experiment: Calcium measurement in hCMs under electrical field stimulation
# [9] = tested on: hCMs; experiment: Mitochondrial (MitoSox) and intracellular (DCFH-DA) ROS measurement in hCMs; type: cell-based, human; conditions: remdesivir 10 μM, 4 or 6 days; for could alter the level of ROS in hCMs when co-stimulated with remdesivir: Asta 10 μM, Vc 50 μg/ml, Vb1 10 μg/ml, NAC 1 mM, GSH 25 μg/ml
# Procedure: Mitochondrial‐associated ROS and intracellular ROS were measured using MitoSox Red Mitochondrial Superoxide Indicator (M‐36008, ThermoFisher) and DCFH‐DA (S0033S, Beyotime), respectively. For mitochondrial‐associated ROS measurement, hCMs were loaded with 4 × 10^−6 M MitoSox dye in Hanks' balanced salt solution buffer for 15 min at 37 °C and washed twice with PBS. The MitoSox fluorescence (excitation/emission = 510/580 nm) was detected and quantified by the Operetta CLS High‐Content Analysis System. For intracellular ROS measurement, hCMs were loaded with 10 × 10^−6 M DCFH‐DA in serum‐free medium for 20 min at 37 °C and washed twice with serum‐free medium. The DCFH fluorescence (excitation/emission = 488/525 nm) was detected and quantified by the Operetta CLS High‐Content Analysis System.
# [10] = tested on: hCMs; parameters: method as in PMID 34142159; conditions: ref 25a; cited from earlier work
# [11] = tested on: hEHTs (human engineered heart tissues); experiment: Contractile force / spontaneous contractility of hEHTs
# [12] = tested on: remdesivir-treated hCMs; experiment: High-throughput screening and validation of compounds protective against remdesivir (cell viability); type: cell-based, human; conditions: 10 × 10^−6 or 25 × 10^−6 M remdesivir for 6 days with co-administration
# Procedure: as §1
# hCMs were seeded into 384‐well plates at a density of 8 × 10^3 cells per well. 24 h after seeding, the cells were treated with either 25 × 10^−6 M remdesivir alone or remdesivir with the chemicals from a Bioactive Compound Library (Topscience) consisted of 2464 natural compounds and US FDA‐approved drugs for 6 days. Chemicals at the concentration of 5 × 10^−6 M were transferred to the plates by using a Tecan Freedom EVO 150 liquid handler.
# [13] = read-out: C max, maximum plasma concentration, ref U.S. FDA or published literature
# [14] = escalating concentrations (lopinavir: high dosage only)
compound,measurement,setting,value
"C[C@H]1[C@H](OC(=O)CCC(=O)O)O[C@@H]2O[C@@]3(C)CC[C@H]4[C@H](C)CC[C@@H]1[C@@]24OO3 [Artesunate, artesunate]",Cmax,[1]; in vivo,0.17 µM
"CC[C@H]1OC(=O)[C@H](C)[C@@H](O[C@H]2C[C@@](C)(OC)[C@@H](O)[C@H](C)O2)[C@H](C)[C@@H](O[C@@H]2O[C@H](C)C[C@H](N(C)C)[C@H]2O)[C@](C)(O)C[C@@H](C)CN(C)[C@H](C)[C@@H](O)[C@]1(C)O [Azithromycin, azithromycin]",Cardiotoxic effects,[2],Ventricular arrhythmias^[ [42] ^]
same,Cmax,[1]; [13],0.67 µM
"CCS(=O)(=O)N1CC(CC#N)(n2cc(-c3ncnc4[nH]ccc34)cn2)C1 [Baricitinib, baricitinib]",Cmax,[1]; [13],3.69 µM
"Cc1c(-c2ccc(-c3ccccc3F)cc2)nc2ccc(F)cc2c1C(=O)O [Brequinar, brequinar]",Cmax,[1]; in vivo,16 µM
"CCN(CC)CCCC(C)Nc1ccnc2cc(Cl)ccc12 (stereo not drawn) [Chloroquine, chloroquine]",Cmax,[1]; [13],1.17 µM
"CC(C)CN(C[C@@H](O)[C@H](Cc1ccccc1)NC(=O)O[C@H]1CO[C@H]2OCC[C@H]21)S(=O)(=O)c1ccc(N)cc1 [Darunavir, darunavir]",Cmax,[1]; [13],12.7 µM
"NC(=O)c1nc(F)c[nH]c1=O [Favipiravir, favipiravir]",Cmax,[1]; in vivo,115 µM
"COCCCC/C(=N\OCCN)c1ccc(C(F)(F)F)cc1 [Fluvoxamine, fluvoxamine]",Cmax,[1]; [13],0.73 µM
"CCN(CCO)CCCC(C)Nc1ccnc2cc(Cl)ccc12 (stereo not drawn) [Hydroxychloroquine, hydroxychloroquine]",Cardiotoxic effects,[2],QTc prolongation^[ [41] ^]
same,Cmax,[1]; in vivo,1.35 µM
"Cc1cccc(C)c1OCC(=O)N[C@@H](Cc1ccccc1)[C@@H](O)C[C@H](Cc1ccccc1)NC(=O)[C@H](C(C)C)N1CCCNC1=O [Lopinavir, lopinavir]",cell viability of hCMs,[3],dose‐dependent decrease
same,Cmax,[1]; in vivo,42.1 µM
same,apoptosis of hCMs (TUNEL),[4],increased apoptosis
same,toxicity to hEHTs,[5],toxic to hEHTs
same,sarcomere organization of hCMs,[6],sarcomeric disarray
same,calcium transient amplitude,[7],tended to decrease
same,time to 50% decay of the calcium transients,[7]; [14],significantly increased
same,time to peak of the calcium transients,[7]; [14],significantly increased
same,intracellular calcium handling properties of hCMs,[8],impair
"C[C@H]1C[C@@H]2[C@H]([C@@H](O)C[C@@]3(C)[C@H]2CC[C@]3(O)C(=O)CO)[C@@]2(C)C=CC(=O)C=C12 [Methylprednisolone, methylprednisolone]",Cmax,[1]; in vivo,1.26 µM
"CC(C)C(=O)OC[C@H]1O[C@@H](n2ccc(NO)nc2=O)[C@H](O)[C@@H]1O [Molnupiravir, molnupiravir]",Cmax,[1]; in vivo,10 to 15 µM
"CC(C)(C)[C@H](NC(=O)C(F)(F)F)C(=O)N1C[C@H]2[C@@H]([C@H]1C(=O)N[C@H](C#N)C[C@@H]1CCNC1=O)C2(C)C [Nirmatrelvir, nirmatrelvir]",Cmax,[1]; in vivo,6.66 µM
"CC(=O)Oc1ccccc1C(=O)Nc1ncc([N+](=O)[O-])s1 [Nitazoxanide, nitazoxanide]",Cmax,[1]; in vivo,17.5 µM
CC(=O)N[C@@H](CS)C(=O)O [N‐acetylcysteine],could alter the level of ROS in hCMs when co-stimulated with remdesivir,[9],neither
"CC1(C)C(=O)N(c2ccc(C#N)c(C(F)(F)F)c2F)C(=S)N1c1ccc(CCCc2ncco2)nc1 [Proxalutamide, proxalutamide]",Cmax,[1]; [13],29 µM
"CCC(CC)COC(=O)[C@H](C)N[P@](=O)(OC[C@H]1O[C@@](C#N)(c2ccc3c(N)ncnn23)[C@H](O)[C@@H]1O)Oc1ccccc1 [Remdesivir, remdesivir]",cell viability of hCMs,[3],dose‐dependent decrease
same,ROS level in hCMs,[9]; MitoSox and DCFH-DA,did not alter
same,Cardiotoxic effects,[2],"Cardiac arrest,^[ [10a,b] ^] heart failures,^[ [10c] ^] arrhythmias^[ [10c] ^]"
same,ROS levels in hCMs,[10],does not alter
same,mitochondrial fragmentation,[10],induce mitochondrial fragmentation
same,mitochondrial respiration,[10],suppress mitochondrial respiration
same,Cmax,[1]; [13],9.03 µM
same,apoptosis of hCMs (TUNEL),[4],increased apoptosis
same,toxicity to hEHTs,[5],toxic to hEHTs
same,hEHT function (tissue level cardiotoxicity),[11],weaken hEHT function
same,abnormal beating of hEHTs (spontaneous contractility),[11]; 2 × 10^−6 or 5 × 10^−6 M for 3 days,more severe
same,passive force of hEHTs,[11]; 3 days,increases of the passive force
same,contractile force of hEHTs,"[11]; progressive stretch 0-12%, 3 days",much lower
same,sarcomere organization of hCMs,[6],sarcomeric disarray
same,intracellular calcium handling properties of hCMs,[8],impair
"CC(C)c1nc(CN(C)C(=O)N[C@H](C(=O)N[C@@H](Cc2ccccc2)C[C@H](O)[C@H](Cc2ccccc2)NC(=O)OCc2cncs2)C(C)C)cs1 [Ritonavir, ritonavir]",Cardiotoxic effects,[2],QTc prolongation and arrhythmias^[ [9] ^]
same,Cmax,[1]; in vivo,1.32 µM
same,apoptosis of hCMs (TUNEL),[4],increased apoptosis
same,toxicity to hEHTs,[5],toxic to hEHTs
same,sarcomere organization of hCMs,[6],sarcomeric disarray
same,calcium transient amplitude,[7],tended to decrease
same,intracellular calcium handling properties of hCMs,[8],impair
"N#CC[C@H](C1CCCC1)n1cc(-c2ncnc3[nH]ccc23)cn1 [Ruxolitinib, ruxolitinib]",Cmax,[1]; in vivo,7.1 µM
"C[C@@H]1CCN(C(=O)CC#N)C[C@@H]1N(C)c1ncnc2[nH]ccc12 [Tofacitinib, tofacitinib]",Cmax,[1]; [13],0.135 µM
CON=C(C(=O)NC1C(=O)N2C(C(=O)O)=C(CSC(=O)c3ccco3)CSC12)c1csc(N)n1 (stereo not drawn) [ceftiofur hydrochloride],"effects on normal hCMs (viability, apoptosis, sarcomere organization)",[3],little effects
same,"remdesivir-induced cardiotoxicity (cell viability), protection",[12],confirmed to reduce
CCOC(=O)C1=C[C@@H](OC(CC)CC)[C@H](NC(C)=O)[C@@H](N)C1 [oseltamivir],associated adverse cardiac effect,[2],tachycardia
OCCOCCN1CCN(C2=Nc3ccccc3Sc3ccccc32)CC1 [quetiapine fumarate],"effects on normal hCMs (viability, apoptosis, sarcomere organization)",[3],little effects
same,"remdesivir-induced cardiotoxicity (cell viability), protection",[12],confirmed to reduce
N[C@@H](CCC(=O)N[C@@H](CS)C(=O)NCC(=O)O)C(=O)O [reduced L‐Glutathione],could alter the level of ROS in hCMs when co-stimulated with remdesivir,[9],neither
Cc1ncc(C[n+]2csc(CCO)c2C)c(N)n1 [vitamin B1],could alter the level of ROS in hCMs when co-stimulated with remdesivir,[9],neither
O=C1O[C@H]([C@@H](O)CO)C(O)=C1O [vitamin C],could alter the level of ROS in hCMs when co-stimulated with remdesivir,[9],neither
ivermectin,associated adverse cardiac effect,[2],tachycardia
same,Cmax,[1]; [13],0.049 µM
